Assay results published in patent US20260191835A1, “COMBINATIONS COMPRISING A MENIN-MLL INHIBITOR AND AT LEAST ONE OTHER THERAPEUTIC AGENT” (JANSSEN PHARMACEUTICA NV, priority 2022, published 2026).

Tested on: OCI-AML3 cells
Experiment: In vitro proliferation (Cell Titer Glo, 6 days) of Compound 51 in combination with idarubicin or decitabine, OCI-AML3
Assay type: cell-based, human
Details: for combination effect on proliferation (cytotoxicity): OCI-AML3 (NPM1c)
Procedure: 3) In Vitro Proliferation—Menin-MLL Inhibitor in Combination with FLT3 Inhibitor (Gilteritinib or Midostaurin), DNA Intercalating Agent (Idarubicin) or Hypomethylating Agent (Decitabine)
The effect of Compound 51 in combination with gilteritinib, midostaurin, idarubicin or decitabine was determined in proliferation assays.
AML cell lines MOLM-13, OCI-AML3 and MV4-11 were purchased from DSMZ. MOLM-13 were grown in RPMI medium supplemented with 10% Fetal Bovine Serum (FBS) and 1% penicillin/streptomycin. MV4-11 cells were grown in IMDM medium supplemented with 10% FBS and 1% penicillin/streptomycin. OCI-AML3 cells were cultured in 80-90% alpha-MEM (with or without ribo- and deoxyribonucleosides)+10-20% FBS. All cell lines were cultured at 37° C. in 5% CO2 atmosphere.
AML cell lines (10-20×10^3 cells/well) were seeded in 96-well plates and grown for 6 days in serum (10%)-containing medium in the presence or absence of inhibitors at the indicated concentrations. Proliferation was analyzed by means of a Cell Titer Glo assay using the […] (Promega, Madison, WI, USA), according to the manufacturer's instructions. Data are mean with standard deviation from two to four independent experiments in technical triplicates.
R-based Biochemically Intuitive Generalized Loewe (BIGL) model implemented with a highest single agent (HSA) null model. Specifically, the BIGL methodology was applied to calculate drug-drug interactions (Van der Borght, K., Tourny, A., Bagdziunas, R. et al. BIGL: Biochemically Intuitive Generalized Loewe null model for prediction of the expected combined effect compatible with partial agonism and antagonism. Sci Rep 7, 17935 (2017); Thas, O., Tourny, A., Verbist, B., Hawinkel, S., Nazarov, M., Mutambanengwe, K., & Bijnens, L. Statistical detection of synergy: New methods and a comparative study. Pharmaceutical Statistics (2021)).
Synergy matrix results of the BIGL analysis of the cell line data with HSA as mean model calculated on the basis of the cellular metabolic activity using Cell Titer-Glo assay. Bootstrap confidence intervals are indicated. Effect sizes and their confidence intervals are shown. […] No significant average effect if zero is included in the interval.

CC(=O)N1CCC(CN2CC[C@@H](Cc3cn(-c4ccc(F)cc4C(=O)N(C)C(C)C)c4cncc(C)c34)C2)CC1 [Compound 51]
Effect size (BIGL, HSA null model), OCI-AML3 Cell Proliferation (Compound 51 0.001 μm + Decitabine 0.0015 μM): −0.02 | Effect size (BIGL, HSA null model), OCI-AML3 Cell Proliferation (Compound 51 0.001 μm + Decitabine 0.015 μM): −0.06 | Effect size (BIGL, HSA null model), OCI-AML3 Cell Proliferation (Compound 51 0.001 μm + Decitabine 0.35 μM): −0.04 | Effect size (BIGL, HSA null model), OCI-AML3 Cell Proliferation (Compound 51 0.001 μm + Decitabine 3 μM): 0.01 | Effect size (BIGL, HSA null model), OCI-AML3 Cell Proliferation (Compound 51 0.001 μm + Decitabine 3.5 μM): −0.02 | Effect size (BIGL, HSA null model), OCI-AML3 Cell Proliferation (Compound 51 0.001 μm + Idarubicin 0.0005 μM): −0.02 | Effect size (BIGL, HSA null model), OCI-AML3 Cell Proliferation (Compound 51 0.001 μm + Idarubicin 0.00625 μM): 0 | Effect size (BIGL, HSA null model), OCI-AML3 Cell Proliferation (Compound 51 0.001 μm + Idarubicin 0.0125 μM): 0.02 | Effect size (BIGL, HSA null model), OCI-AML3 Cell Proliferation (Compound 51 0.001 μm + Idarubicin 0.025 μM): 0 | Effect size (BIGL, HSA null model), OCI-AML3 Cell Proliferation (Compound 51 0.001 μm + Idarubicin 0.05 μM): −0.01 | Effect size (BIGL, HSA null model), OCI-AML3 Cell Proliferation (Compound 51 0.001 μm + Idarubicin 0.5 μM): −0.01 | Effect size (BIGL, HSA null model), OCI-AML3 Cell Proliferation (Compound 51 0.01 μm + Decitabine 0.0015 μM): −0.01 | Effect size (BIGL, HSA null model), OCI-AML3 Cell Proliferation (Compound 51 0.01 μm + Decitabine 0.015 μM): −0.1 | Effect size (BIGL, HSA null model), OCI-AML3 Cell Proliferation (Compound 51 0.01 μm + Decitabine 0.35 μM): −0.07 | Effect size (BIGL, HSA null model), OCI-AML3 Cell Proliferation (Compound 51 0.01 μm + Decitabine 3 μM): 0 | Effect size (BIGL, HSA null model), OCI-AML3 Cell Proliferation (Compound 51 0.01 μm + Decitabine 3.5 μM): −0.02 | Effect size (BIGL, HSA null model), OCI-AML3 Cell Proliferation (Compound 51 0.01 μm + Idarubicin 0.0005 μM): 0.05 | Effect size (BIGL, HSA null model), OCI-AML3 Cell Proliferation (Compound 51 0.01 μm + Idarubicin 0.00625 μM): −0.02 | Effect size (BIGL, HSA null model), OCI-AML3 Cell Proliferation (Compound 51 0.01 μm + Idarubicin 0.0125 μM): 0.01 | Effect size (BIGL, HSA null model), OCI-AML3 Cell Proliferation (Compound 51 0.01 μm + Idarubicin 0.025 μM): 0 | Effect size (BIGL, HSA null model), OCI-AML3 Cell Proliferation (Compound 51 0.01 μm + Idarubicin 0.05 μM): −0.01 | Effect size (BIGL, HSA null model), OCI-AML3 Cell Proliferation (Compound 51 0.01 μm + Idarubicin 0.5 μM): −0.01 | Effect size (BIGL, HSA null model), OCI-AML3 Cell Proliferation (Compound 51 0.05 μm + Decitabine 0.0015 μM): 0 | Effect size (BIGL, HSA null model), OCI-AML3 Cell Proliferation (Compound 51 0.05 μm + Decitabine 0.015 μM): 0 | Effect size (BIGL, HSA null model), OCI-AML3 Cell Proliferation (Compound 51 0.05 μm + Decitabine 0.35 μM): −0.1 | Effect size (BIGL, HSA null model), OCI-AML3 Cell Proliferation (Compound 51 0.05 μm + Decitabine 3 μM): 0 | Effect size (BIGL, HSA null model), OCI-AML3 Cell Proliferation (Compound 51 0.05 μm + Decitabine 3.5 μM): −0.03 | Effect size (BIGL, HSA null model), OCI-AML3 Cell Proliferation (Compound 51 0.05 μm + Idarubicin 0.0005 μM): 0.04 | Effect size (BIGL, HSA null model), OCI-AML3 Cell Proliferation (Compound 51 0.05 μm + Idarubicin 0.00625 μM): −0.04 | Effect size (BIGL, HSA null model), OCI-AML3 Cell Proliferation (Compound 51 0.05 μm + Idarubicin 0.0125 μM): 0 | Effect size (BIGL, HSA null model), OCI-AML3 Cell Proliferation (Compound 51 0.05 μm + Idarubicin 0.025 μM): −0.01 | Effect size (BIGL, HSA null model), OCI-AML3 Cell Proliferation (Compound 51 0.05 μm + Idarubicin 0.05 μM): −0.01 | Effect size (BIGL, HSA null model), OCI-AML3 Cell Proliferation (Compound 51 0.05 μm + Idarubicin 0.5 μM): −0.01 | Effect size (BIGL, HSA null model), OCI-AML3 Cell Proliferation (Compound 51 0.1 μm + Decitabine 0.0015 μM): 0.01 | Effect size (BIGL, HSA null model), OCI-AML3 Cell Proliferation (Compound 51 0.1 μm + Decitabine 0.015 μM): 0.08 | Effect size (BIGL, HSA null model), OCI-AML3 Cell Proliferation (Compound 51 0.1 μm + Decitabine 0.35 μM): −0.07 | Effect size (BIGL, HSA null model), OCI-AML3 Cell Proliferation (Compound 51 0.1 μm + Decitabine 3 μM): 0 | Effect size (BIGL, HSA null model), OCI-AML3 Cell Proliferation (Compound 51 0.1 μm + Decitabine 3.5 μM): −0.02 | Effect size (BIGL, HSA null model), OCI-AML3 Cell Proliferation (Compound 51 0.1 μm + Idarubicin 0.0005 μM): 0.01 | Effect size (BIGL, HSA null model), OCI-AML3 Cell Proliferation (Compound 51 0.1 μm + Idarubicin 0.00625 μM): −0.05 | Effect size (BIGL, HSA null model), OCI-AML3 Cell Proliferation (Compound 51 0.1 μm + Idarubicin 0.0125 μM): 0 | Effect size (BIGL, HSA null model), OCI-AML3 Cell Proliferation (Compound 51 0.1 μm + Idarubicin 0.025 μM): 0 | Effect size (BIGL, HSA null model), OCI-AML3 Cell Proliferation (Compound 51 0.1 μm + Idarubicin 0.05 μM): −0.01 | Effect size (BIGL, HSA null model), OCI-AML3 Cell Proliferation (Compound 51 0.1 μm + Idarubicin 0.5 μM): −0.01 | Effect size (BIGL, HSA null model), OCI-AML3 Cell Proliferation (Compound 51 1 μm + Decitabine 0.0015 μM): 0.02 | Effect size (BIGL, HSA null model), OCI-AML3 Cell Proliferation (Compound 51 1 μm + Decitabine 0.015 μM): 0.13 | Effect size (BIGL, HSA null model), OCI-AML3 Cell Proliferation (Compound 51 1 μm + Decitabine 0.35 μM): 0.01 | Effect size (BIGL, HSA null model), OCI-AML3 Cell Proliferation (Compound 51 1 μm + Decitabine 3 μM): 0 | Effect size (BIGL, HSA null model), OCI-AML3 Cell Proliferation (Compound 51 1 μm + Decitabine 3.5 μM): −0.02 | Effect size (BIGL, HSA null model), OCI-AML3 Cell Proliferation (Compound 51 1 μm + Idarubicin 0.0005 μM): −0.03 | Effect size (BIGL, HSA null model), OCI-AML3 Cell Proliferation (Compound 51 1 μm + Idarubicin 0.00625 μM): −0.06 | Effect size (BIGL, HSA null model), OCI-AML3 Cell Proliferation (Compound 51 1 μm + Idarubicin 0.0125 μM): 0 | Effect size (BIGL, HSA null model), OCI-AML3 Cell Proliferation (Compound 51 1 μm + Idarubicin 0.025 μM): −0.01 | Effect size (BIGL, HSA null model), OCI-AML3 Cell Proliferation (Compound 51 1 μm + Idarubicin 0.05 μM): −0.01 | Effect size (BIGL, HSA null model), OCI-AML3 Cell Proliferation (Compound 51 1 μm + Idarubicin 0.5 μM): −0.01 | Effect size (BIGL, HSA null model), OCI-AML3 Cell Proliferation (Compound 51 10 μm + Decitabine 0.0015 μM): 0.01 | Effect size (BIGL, HSA null model), OCI-AML3 Cell Proliferation (Compound 51 10 μm + Decitabine 0.015 μM): 0.1 | Effect size (BIGL, HSA null model), OCI-AML3 Cell Proliferation (Compound 51 10 μm + Decitabine 0.35 μM): −0.02 | Effect size (BIGL, HSA null model), OCI-AML3 Cell Proliferation (Compound 51 10 μm + Decitabine 3 μM): 0.01 | Effect size (BIGL, HSA null model), OCI-AML3 Cell Proliferation (Compound 51 10 μm + Decitabine 3.5 μM): −0.01 | Effect size (BIGL, HSA null model), OCI-AML3 Cell Proliferation (Compound 51 10 μm + Idarubicin 0.0005 μM): 0.04 | Effect size (BIGL, HSA null model), OCI-AML3 Cell Proliferation (Compound 51 10 μm + Idarubicin 0.00625 μM): −0.06 | Effect size (BIGL, HSA null model), OCI-AML3 Cell Proliferation (Compound 51 10 μm + Idarubicin 0.0125 μM): 0 | Effect size (BIGL, HSA null model), OCI-AML3 Cell Proliferation (Compound 51 10 μm + Idarubicin 0.025 μM): −0.01 | Effect size (BIGL, HSA null model), OCI-AML3 Cell Proliferation (Compound 51 10 μm + Idarubicin 0.05 μM): −0.01 | Effect size (BIGL, HSA null model), OCI-AML3 Cell Proliferation (Compound 51 10 μm + Idarubicin 0.5 μM): −0.01 | combination effect on proliferation (cytotoxicity) (in combination with decitabine, 6-day CellTiter-Glo matrix): not antagonistically cytotoxic | combination effect on proliferation (cytotoxicity) (in combination with idarubicin, 6-day Cell Titer-Glo matrix): not antagonistically cytotoxic
